Test results published in patent publication US7605176B2 (Boehringer Ingelheim International GmbH, priority 2004, dated 2009).

Columns and labels:
hMCH-1R = target: T1, hMCH-1R (Homo sapiens, UniProt Q99705); assay: MCH-1 receptor binding test (125I-MCH binding to membranes of hMCH-1R transfected CHO/Galpha16 cells); conditions: competition with 100 pM 125I-MCH, membranes of CHO/Galpha16 cells stably transfected with hMCH-1R
T1 construct: expressed in transfected cells
Description: Membranes from CHO/Galpha16 cells stably transfected with human hMCH-1R are resuspended using a syringe (needle 0.6×25 mm) and diluted in test buffer (50 mM HEPES, 10 mM MgCl2, 2 mM EGTA, pH 7.00; 0.1% bovine serum albumin (protease-free), 0.021% bacitracin, 1 μg/mL aprotinin, 1 μg/mL leupeptin, and 1 μM phosphoramidone) to a concentration of 5 to 15 μg/mL.
After the incubation the reaction is filtered using a cell harvester through 0.5% PEI treated fiberglass filters (GF/B, Unifilter Packard). The membrane-bound radioactivity retained on the filter is then determined after the addition of scintillator substance (Packard Microscint 20) in a measuring device (TopCount of Packard).
The analysis of the concentration binding curve is carried out on the assumption of one receptor binding site.

T1 sequence (Q99705 whole entry): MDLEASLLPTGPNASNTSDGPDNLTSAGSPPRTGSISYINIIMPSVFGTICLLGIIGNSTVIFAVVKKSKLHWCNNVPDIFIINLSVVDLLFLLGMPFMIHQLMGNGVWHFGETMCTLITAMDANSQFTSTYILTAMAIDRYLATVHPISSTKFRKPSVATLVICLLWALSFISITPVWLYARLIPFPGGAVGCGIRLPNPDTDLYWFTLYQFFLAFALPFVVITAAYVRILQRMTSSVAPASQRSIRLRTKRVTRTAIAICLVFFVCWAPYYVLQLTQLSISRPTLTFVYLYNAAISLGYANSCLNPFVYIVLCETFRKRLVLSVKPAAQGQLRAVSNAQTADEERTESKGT

Compound	melting point	IC50 (hMCH-1R)
O=C(CC(=O)c1ccc(-c2ccccc2)cc1)NCCc1ccc(CN2CCCC2)cc1 [Example 5.1]	121 to 125 °C	63.7 nM
CCN(CC)CCOc1ccc(NC(=O)CC(=O)c2ccc(-c3ccccc3)cc2)cc1Cl [Example 7, 3-biphenyl-4-yl-N-[3-chloro-4-(2-diethylaminoethoxy)phenyl]-3-oxopropionamide]	148 to 151 °C	–
CCN(CC)CCOc1ccc(NC(=O)CC(=O)c2ccc(C(F)(F)F)cc2Cl)cc1Cl [Example 7.1]	–	34.8 nM

More lines, now with the values ahead:

melting point	IC50 (hMCH-1R)	Compound
135 to 139 °C	–	CC1CCN(CCOc2ccc(NC(=O)CC(=O)c3ccc(-c4ccccc4)cc3)cc2Cl)CC1 [Example 1, 3-biphenyl-4-yl-N-{3-chloro-4-[2-(4-methylpiperidin-1-yl)ethoxy]phenyl}-3-oxopropionamide]
131 to 135 °C	–	COC(=O)c1cc(NC(=O)CC(=O)c2ccc(-c3ccccc3)cc2)ccc1OCCN1CCCC1 [Example 1.9, methyl 5-(3-biphenyl-4-yl-3-oxopropionylamino)-2-(2-pyrrolidin-1-ylethoxy)benzoate]
236 to 240 °C	–	O=C(CC(=O)c1ccc(-c2ccccc2)cc1)Nc1ccc(OCCN2CCCC2)c(C(=O)O)c1 [Example 8, 5-(3-biphenyl-4-yl-3-oxopropionylamino)-2-(2-pyrrolidin-1-ylethoxy)benzoic acid]
